# Results: US7781580B2, “Stilbene derivatives as new cancer therapeutic agents” (Virginia Commonwealth University, priority 2007, dated 2010)
# Legend:
# [1] = test system: c-kit-positive progenitor cells (engraftment); assay: bone marrow transplantation of stilbene-treated progenitor cells; assay type: in vivo, mice; conditions: cells incubated at 0.1 or 0.5 μM for 16 hours
# Experimental: FIG. 16. (a) Effect of stilbenes in normal bone marrow progenitor cells. c-kit-positive bone marrow mononuclear cells were isolated for incubation with stilbenes 4a or 4c at 0.1 or 0.5 […] for 16 hours. Cells were harvested for fixation and PI staining. Cell cycle analysis and quantification of the subG0/1 population were analyzed by FACScan flow cytometry. The percentages of the apoptotic population were indicated. Shown are the representatives of two independent experiments. (b) Effect of stilbenes in HL60 cells as positive control. HL60 cells were treated with stilbenes 4a or 4c in the same medium as the positive control. (c) Colony forming assay of the stilbene-treated c-kit-positive cells. […] Cells were incubated for 14 days and the grossly visible colonies were counted. […] Mice were monitored for survival and lineage-specific donor engraftment by flow cytometry analysis of peripheral blood. […]
# C57BL/6J (H2b, CD45.2) mice served as bone marrow donors and were between 6-10 weeks of age. […] Peripheral blood engraftment in recipient mice was assessed by flow cytometry analysis for CD3+ (145-2C11; BD Biosciences, San Jose, Calif.) T-cells, B220+ (RA3-6B2) B-cells, Mac1+ (M1/70.15) monocytes, and Gr1+ (8C5) granulocytes and distinguished between donor versus recipient with anti-CD45.1 (A20) and anti-CD45.2 (104) monoclonal antibodies.
# [2] = test system: c-kit positive marrow progenitor cells; assay: bone marrow c-kit-positive progenitor cells: cell cycle and colony forming assay; assay type: cell-based
# Experimental: FIG. 16. (a) Effect of stilbenes in normal bone marrow progenitor cells. c-kit-positive bone marrow mononuclear cells were isolated for incubation with stilbenes 4a or 4c at 0.1 or 0.5 […] for 16 hours. Cells were harvested for fixation and PI staining. Cell cycle analysis and quantification of the subG0/1 population were analyzed by FACScan flow cytometry. The percentages of the apoptotic population were indicated. Shown are the representatives of two independent experiments. (b) Effect of stilbenes in HL60 cells as positive control. HL60 cells were treated with stilbenes 4a or 4c in the same medium as the positive control. (c) Colony forming assay of the stilbene-treated c-kit-positive cells. A fraction of the cells in (a) were diluted and plated on methylcellulose medium at various densities. Cells were incubated for 14 days and the grossly visible colonies were counted. […] Isolated bone marrow c-kit-positive progenitor cells were incubated with DMSO or stilbenes 4a or 4c at 0.1 or 0.5 μM for 16 hours and injected into tail veins of CD45 congenic mice lethally irradiated with 1200 cGy. Mice were monitored for survival and lineage-specific donor engraftment by flow cytometry analysis of peripheral blood. The percentage of donor cells in T, B, and granulocytic series of the recipients were studied at 7 and 14 weeks after transplantation. Stilbene treated c-Kit progenitor cells had the same percentage as the DMSO treated control in all series.
# Mouse bone marrow was harvested from femur and tibia of […], subjected to red blood cell lysis, and labeled with anti-c-kit (3C11; CALTAG Laboratories, Burlingame, Calif.) and streptavidin-conjugated microbeads for MACS separation (Miltenyi Biotech, Auburn, Calif.). The c-kit positive marrow progenitor cells were incubated in Iscove's Modified Eagle's Media supplemented with 30% fetal bovine serum, erythropoietin, stem cell factor and interleukin-3 with or without stilbenes 4a or 4c. The ability of long-term proliferation of the c-kit-positive cells was evaluated with colony forming assay. Cells were first treated with DMSO, stilbenes 4a or 4c for 5 h and a fraction of the cells (4000 cells) were plated in the same enriched culture media with methylcellulose for colony forming assays. The grossly visible colonies were counted after 14 days of incubation.
# [3] = test system: Tubulin (>99% pure); assay: tubulin polymerization assay (OD 340 nm); assay type: biochemical; conditions: OD340 nm; nocodazole and paclitaxel 10 μM
# Experimental: FIG. 3a-d. Stilbenes inhibit tubulin polymerization. (a) Effect of stilbene 4a. Pure tubulin was incubated with various concentrations of stilbene 4a, 10 μM nocodazole, and 10 μM paclitaxel in the polymerization buffer. The OD at 340 nm was monitored every minute by SpectraMAX 250 and plotted against time. (b) Effect of stilbene 4c. (c) Comparison of same concentrations of stilbenes 4a, 4a trans, 4c and 4c trans with control. […] Tubulin was incubated with [^3H]-colchicine and various concentrations of different stilbenes for 20 min. Tubulin was then separated from the unbound [^3H]-colchicine by Microcon-30 and washed three times with PBS. The radioactivity of the tubulin was counted. […] All experiments were done in triplicates.
# The tubulin polymerization assay kit was purchased from Cytoskeleton (Denver, Colo.). Tubulin (>99% pure) was mixed with general tubulin buffer (GTB, 80 mM PIPES pH 6.9, 2 mM MgCl2, 0.5 mM EGTA, and 1 mM GTP) in a 96-well plate at 37° C. Absorbance at 340 nm was measured every 1 min for 60 min by SpectraMAX 250 (Molecular Devices, Sunnyville, Calif.). Analysis of the results was performed by SoftMAX Pro version 1.2.0 from the same company.
# [4] = test system: tubulin (colchicine site); assay: [3H]-colchicine competition for binding tubulin; conditions: 20 min, 37° C.
# Experimental: FIG. 3a-d. […] (a) Effect of stilbene 4a. Pure tubulin was incubated with various concentrations of stilbene 4a, 10 μM nocodazole, and 10 μM paclitaxel in the polymerization buffer. The OD at 340 nm was monitored every minute by SpectraMAX 250 and plotted against time. (b) Effect of stilbene 4c. (c) Comparison of same concentrations of stilbenes 4a, 4a trans, 4c and 4c trans with control. […] The radioactivity of the tubulin was counted. […] All experiments were done in triplicates.
# Tubulin retained in the Microcon was washed three times with PBS. The radioactivity of the final concentrated tubulin was determined by a scintillation counter.
# [5] = test system: UCI101 ovarian cancer cells; assay: Western blot of signal transduction events, UCI101; assay type: cell-based
# Experimental: All these agents are microtubule interfering agents but with different binding sites. Cells were harvested at 0, 4, 8, 16 and 36 hours after drug treatment for Western blot analysis. […] Phosphorylation of both Cdc25C and Cdc2 disappeared after 16 hours and slightly recovered at 36 hours. […] Akt phosphorylation decreased after 16 hours of treatment.
# In order to understand the mechanism of resistance of stilbenes, various signal transduction pathways were investigated to examine how cells respond to stilbene treatment. UCI101 ovarian cancer cells were treated with stilbenes 4a, 4c or paclitaxel (Taxol) at 0.1 μM for 0, 4, 8, 16 and 36 hours. Cells were harvested for Western blotting. Changes in the kinases involved in cell cycle progression from G2-M transition were first determined in Cdc2, Cdc25c, and mitotic spindle check point regulator BubR1. […] 36 hours after treatment, rephosphorylation of Cdc2 was observed. […] The higher molecular weight isomer of Cdc25c, the mitotic form, increased at 16 and 36 hours. […] A similar study was then performed with other microtubule interfering agents such as combretastatin A4, 13a and vincristine for comparison. A similar trend was observed among these three microtubule interfering agents (FIG. 18).
# [6] = test system: SNU423 hepatocellular carcinoma cells; assay: Alamar Blue cell growth inhibition, SNU423; assay type: cell-based; conditions: SNU423
# Experimental: Cell growth was measured by Alamar Blue™ staining and the OD absorbance at 570 and 600 nm was determined by a microplate reader. The percentage of cell growth inhibition was calculated and compared with the control cells that were treated with 0.1% DMSO, the vehicle for the stilbene compounds.
# Various cancer cell lines were grown in 96-well plates for drug sensitivity assays. Once cells achieved 50% confluence, the incubation media was changed to the same cell growth media with different concentrations of the tested compounds or vehicle alone. Cells were then incubated for 48 hours before the cell growth inhibition study. To determine the degree of cell growth inhibition, 1/10 volume of Alamar Blue™ solution was added to each well and optical density (OD) at 570 and 600 nm was determined. The percentage of growth inhibition was calculated according to the manufacturer's formula as follows: The percentage of growth is [(117216×A570)−(80586×A600)]/[(117216×A^o570)−(80586×A^o600)]×100. In this formula, A570 is the absorbance of the treated samples at 570 nm; A600 is the absorbance of the treated samples at 600 nm; A^o570 is the absorbance of the […] samples at 570 nm; and A^o600 is the absorbance of the untreated samples at 600 nm. The two constants, 117216 and 80586, are the extinction coefficients of Alamar Blue™ at 570 and 600 nm respectively. Each concentration was repeated in triplicate to minimize the error.
# We first tested the cytotoxic effect of various stilbene derivatives for their in vitro efficacy of suppressing tumor cell proliferation. Cells were first plated in 96-well plates at 50% confluence and treated with 0, 0.01, 0.03, 0.1, 0.3, 1.0, 3.0, 10 μM concentrations of stilbene derivatives for 48 hours in triplicate. Alamar Blue™ reagent was added into each well at 1/10 volume and incubated for 2 hours before quantification of the absorbance at 570 and 600 nm.
smiles,measurement,setting,value
"COc1cc(/C=C\c2ccc(OC)c(O)c2)cc(OC)c1 [4c, (Z)5-[2-(3,5-Dimethoxy-phenyl)-vinyl]-2-methoxy-phenol]",radioprotection of lethally irradiated mice by treated progenitor cells,[1],all mice were rescued from lethal irradiation
same,cell cycle of marrow progenitor cells at 0.1 μM,[2],not affected
same,toxicity to normal bone marrow progenitor cells versus leukemia cells,[2],much less toxic to normal bone marrow progenitor cells
same,cell cycle of marrow progenitor cells at 0.5 μM,"[2]; BALB/c, mouse, 16 h, 0.5 μM",small increase in subG0/1 and G2 population
same,effect on tubulin polymerization,[3],suppressed tubulin polymerization in a dose-dependent manner but less potent than stilbene 4a
same,competition with [3H]-colchicine for tubulin,[4],dose-dependent suppression of tubulin-colchicine interaction
same,phosphorylation of Stat3,[5]; 0.1 μM,transient increase in phosphorylation at 4 and 8 hours
same,phosphorylation of Cdc2 at Tyr15,"[5]; 0.1 μM, 16 hours",decreased dramatically
same,phosphorylation of Chk1,[5]; 36 hours,do not cause more phosphorylation of Chk1
same,relative potency,[6],much more potent than the trans counterparts
